# Laboratory results published in US20200236940A1, “2-(HET)ARYL-SUBSTITUTED FUSED HETEROCYCLE DERIVATIVES AS PESTICIDES” (Bayer Aktiengesellschaft, priority 2017, published 2020).
# What was measured:
# Type in all cases: in vivo
# [1] = tested on: Ctenocephalides felis; assay: Ctenocephalides felis oral test; settings: application rate 100 ppm, after 2 days
# Method: Ctenocephalides felis—Oral Test Solvent: dimethyl sulfoxide To produce a suitable active ingredient formulation, 10 mg of active ingredient are mixed with 0.5 ml of dimethyl sulfoxide. Dilution with citrated cattle blood gives the desired concentration. About 20 unfed adult cat fleas (Ctenocephalides felis) are placed into a chamber which is closed at the top and bottom with gauze. A metal cylinder whose bottom end is closed with parafilm is placed onto the chamber. The cylinder contains the blood/active ingredient formulation, which can be imbibed by the fleas through the parafilm membrane. After 2 days, the kill in % is determined. 100% means that all of the fleas have been killed; 0% means that none of the fleas have been killed.
# [2] = tested on: Phaedon cochleariae; assay: Phaedon cochleariae spray test, Chinese cabbage leaf discs; settings: foliar, 168 h, application rate 100 g/ha, after 7 days, larvae, read-out: efficacy
# Method: Phaedon cochleariae—Spray Test
# (§1) To produce a suitable active ingredient formulation, 1 part by weight of active ingredient is dissolved with the specified parts by weight of solvent and made up to the desired concentration with water containing an emulsifier concentration of 1000 ppm. To produce further test concentrations, the formulation is diluted with emulsifier-containing water.
# After 7 days, the efficacy in % is determined. 100% means that all the beetle larvae have been killed; 0% means that no beetle larvae have been killed.
# [3] = tested on: Myzus persicae; assay: Myzus persicae spray test (MYZUPE), Chinese cabbage leaf discs; settings: foliar, 120 h; for pest or weed control at 20 g/ha: application rate 20 g/ha
# Method: Myzus persicae—Spray Test [table] To produce a suitable active ingredient formulation, 1 part by weight of active ingredient is dissolved with the specified parts by weight of solvent and made up to the desired concentration with water containing an emulsifier concentration of 1000 ppm. To produce further test concentrations, the formulation is diluted with emulsifier-containing water. Discs of Chinese cabbage leaves (Brassica pekinensis) infested by all stages of the green peach aphid (Myzus persicae) are sprayed with an active ingredient formulation of the desired concentration. After 5 days, the efficacy in % is determined. 100% means that all the aphids have been killed; 0% means that no aphids have been killed. Myzus persicae—Spray Test (MYZUPE) [table] To produce a suitable active ingredient formulation, 1 part by weight of active ingredient is dissolved with the specified parts by weight of solvent and made up to the desired concentration with water containing an emulsifier concentration of 1000 ppm. To produce further test concentrations, the formulation is diluted with emulsifier-containing water. Discs of Chinese cabbage leaves (Brassica pekinensis) infested by all stages of the green peach aphid (Myzus persicae) are sprayed with an active ingredient formulation of the desired concentration. After the desired period of time, the efficacy in % is determined. 100% means that all the aphids have been killed; 0% means that no aphids have been killed.
# [4] = tested on: Meloidogyne incognita; assay: Meloidogyne incognita test; settings: application rate 20 ppm, after 14 days, formation of galls on lettuce
# Method: Meloidogyne incognita Test Solvent: 125.0 parts by weight of acetone To produce a suitable active ingredient formulation, 1 part by weight of active compound is mixed with the stated amount of solvent and the concentrate is diluted to the desired concentration with water. Vessels are filled with sand, active compound solution, an egg/larvae suspension of the southern root-knot nematode (Meloidogyne incognita) and lettuce seeds. The lettuce seeds germinate and the plants develop. The galls develop on the roots. After 14 days, the nematicidal efficacy in % is determined by the formation of galls. 100% means that no galls were found; 0% means that the number of galls on the treated plants corresponds to the untreated control.
# [5] = tested on: Lucilia cuprina; assay: Lucilia cuprina test; settings: after 2 days, L1 larvae
# Method: Lucilia cuprina Test Solvent: dimethyl sulfoxide To produce a suitable active ingredient formulation, 10 mg of active ingredient are mixed with 0.5 ml of dimethyl sulfoxide, and the concentrate is diluted with water to the desired concentration. About 20 L1 larvae of the Australian sheep blowfly (Lucilia cuprina) are transferred into a test vessel containing minced horsemeat and the active ingredient formulation of the desired concentration. After 2 days, the kill in % is determined. 100% means that all the larvae have been killed; 0% means that no larvae have been killed.
# [6] = tested on: Spodoptera frugiperda; assay: Spodoptera frugiperda spray test, maize leaf discs; settings: application rate 100 g/ha, after 7 days, caterpillars
# Method: Spodoptera frugiperda—Spray Test [table] To produce a suitable active ingredient formulation, 1 part by weight of active ingredient is dissolved with the specified parts by weight of solvent and made up to the desired concentration with water containing an emulsifier concentration of 1000 ppm. To produce further test concentrations, the formulation is diluted with emulsifier-containing water. Leaf discs of maize (Zea mays) are sprayed with an active ingredient formulation of the desired concentration and, after drying, populated with caterpillars of the armyworm (Spodoptera frugiperda). After 7 days, the efficacy in % is determined. 100% means that all the caterpillars have been killed; 0% means that no caterpillar has been killed.
# [7] = tested on: Myzus persicae; assay: Myzus persicae oral test; settings: 120 h, application rate 4 ppm, after 5 days, read-out: efficacy
# Method: Myzus persicae—Oral Test Solvent: 100 parts by weight of acetone To produce a suitable active ingredient formulation, 1 part by weight of active ingredient is dissolved with the stated parts by weight of solvent and made up to the desired concentration with water. 50 μl of the active ingredient formulation are transferred into microtitre plates and made up to a final volume of 200 μl with 150 μl of IPL41 insect medium (33%+15% sugar). Subsequently, the plates are sealed with parafilm, which a mixed population of green peach aphids (Myzus persicae) within a second microtitre plate is able to puncture and imbibe the solution. After 5 days, the efficacy in % is determined. 100% means that all the aphids have been killed; 0% means that no aphids have been killed.
# [8] = tested on: Nilaparvata lugens; assay: Nilaparvata lugens spray test (NILALU); settings: 96 h, 500 g of ai/ha, 4 dat, read-out: % efficacy
# Method: Nilaparvata lugens—Spray Test (NILALU)
# as §1, with “water. If the addition of ammonium salts or/and penetrants is required, these are each added in a concentration of 1000 ppm to the formulation solution.” for “water.”
# Rice plants (Oryza sativa) are sprayed with an active ingredient formulation of the desired concentration and then populated with larvae of the brown planthopper (Nilaparvata lugens).
# […], the efficacy in % is determined. 100% means that all of the planthoppers have been killed; 0% means that none of the planthoppers have been killed.
# [9] = tested on: Phaedon cochleariae; assay: Phaedon cochleariae spray test (PHAECO), cabbage leaves; settings: 168 h, 7 dat, read-out: % efficacy
# Method: Phaedon cochleariae—Spray Test (PHAECO)
# Solvent: 14 parts by weight of dimethylformamide
# Emulsifier: alkylaryl polyglycol ether
# as §1, with “water. If the addition of ammonium salts or/and penetrants is required, these are each added in a concentration of 1000 ppm to the formulation solution.” for “water.”
# Cabbage leaves (Brassica oleracea) are sprayed with an active ingredient formulation of the desired concentration and populated with larvae of the mustard beetle (Phaedon cochleariae).
# After the desired time, the kill in % is determined. 100% means that all the beetle larvae have been killed; 0% means that no beetle larvae have been killed.
# [10] = tested on: Spodoptera frugiperda; assay: Spodoptera frugiperda drench test (SPODFR D); settings: soil, 336 h, 14 dat, read-out: % efficacy
# Method: Spodoptera frugiperda—Drench Test (SPODFR D) [table] To produce a suitable active ingredient formulation, 1 part by weight of active ingredient is mixed with the specified amounts of solvent and emulsifier, and the concentrate is diluted with water to the desired concentration, it being necessary to take into account the volume of soil which is drenched. It should be ensured that a concentration of 40 ppm of emulsifier in the soil is not exceeded. To produce further test concentrations, water is used for dilution. Maize plants (Zea mays) in pots of soil are watered with an active ingredient formulation of the desired concentration and infected with caterpillars of the armyworm (Spodoptera frugiperda). After the desired time, the kill in % is determined. 100% means that all caterpillars have been killed; 0% means that none of the caterpillars have been killed.
# [11] = tested on: Musca domestica; assay: Musca domestica test; settings: application rate 100 ppm, after 2 days, adult houseflies
# Method: Musca domestica Test Solvent: dimethyl sulfoxide To produce a suitable active ingredient formulation, 10 mg of active ingredient are mixed with 0.5 ml of dimethyl sulfoxide, and the concentrate is diluted with water to the desired concentration. Vessels containing a sponge treated with sugar solution and the desired concentration of active ingredient formulation are populated with 10 adult houseflies (Musca domestica). After 2 days, the kill in % is determined. 100% means that all the flies were killed; 0% means that no flies were killed.
# [12] = tested on: Boophilus microplus; assay: Boophilus microplus injection test; settings: application rate 20 μg/animal, after 7 days, laying of fertile eggs
# Method: Boophilus microplus—Injection Test Solvent: dimethyl sulfoxide To produce a suitable active ingredient formulation, 10 mg of active ingredient are mixed with 0.5 ml of solvent and the concentrate is diluted to the desired concentration with solvent. 1 μl of the active ingredient solution is injected into the abdomen of 5 engorged adult female cattle ticks (Boophilus microplus). The animals are transferred into dishes and kept in a climate-controlled room. Efficacy is assessed after 7 days by laying of fertile eggs. Eggs which are not visibly fertile are stored in a climate-controlled cabinet until the larvae hatch after about 42 days. An efficacy of 100% means that none of the ticks has laid any fertile eggs; 0% means that all the eggs are fertile.
# [13] = after 5 days, read-out: efficacy
SMILES,efficacy (kill) [1],pest or weed control at 100 g/ha [2],"Emax at 20 g/ha ([3]; MYZUPE, 20 g of ai/ha, 5 dat, read-out: % efficacy)","Emax at 100 g/ha ([3]; MYZUPE, 100 g of ai/ha, 5 dat, read-out: % efficacy)","pest or weed control at 20 g/ha [3, 13]","pest or weed control at 100 g/ha ([3]; application rate 100 g/ha, after 5 days, read-out: efficacy)",nematicidal efficacy [4],efficacy (kill) ([5]; application rate 20 ppm),efficacy (kill) ([5]; application rate 100 ppm),efficacy [6],pest or weed control at 4 ppm [7],Emax at 500 g/ha [8],Emax at 0.8 ppm [9],Emax at 20 ppm [10],efficacy (kill) [11],efficacy [12]
CCS(=O)(=O)c1ccc(-n2ncn(-c3ccc(Cl)cc3)c2=O)nc1-c1nc2cc(C(F)(F)F)nc(C)c2n1C [Example I-001],100%,100%,90%,90%,90%,90%,90%,100%,100%,100%,90%,60%,100%,60%,,
CCS(=O)(=O)c1ccc(-n2cncn2)nc1-c1nc2cc(C(F)(F)F)nc(C)c2n1C [Example I-003],100%,83%,,,90%,,,,100%,,100%,,,,100%,100%
